Assay results: publication PMC6267684, “Pharmacokinetic evaluation of the PNC disassembler metarrestin in wild-type and Pdx1-Cre;LSL-Kras^G12D/+;Tp53^R172H/+ (KPC) mice, a genetically engineered model of pancreatic cancer” (Cancer Chemotherapy and Pharmacology, 2018)
Several values for one entry are separate records, joined by “and”; a condition that tells them apart may be missing. Identical values can stand only once. Like-named read-outs stand apart in the source and are kept apart here.

Experiment: Pharmacokinetics in tumor-bearing KPC mice after 25 mg/kg single or multiple dose oral gavage
Format: in vivo
Settings: for AUC(0-t): po; for Kp: read-out: AUC0–24h ratio (tissue/plasma)
Excerpt: Animals with three or more tumors per organ, pancreatic cysts or cystic tumors, signs of intestinal, pancreatic or gall bladder duct occlusions, or otherwise moribund/showing signs of dilapidation were excluded. Mice were randomized into treatment groups using their tumor volume and location inside pancreas, animal age, gender, and weight by an unbiased covariate randomization.
For pharmacokinetic studies, metarrestin solutions prepared in 30% PEG-400 and 70% (20% w:v HP-β-CD in water) solution were administered to C57BL/6 mice at 3 mg/kg IV via tail vein injection, or 3 and 10 mg/kg orally via gavage. KPC mice were additionally treated with 25 mg/kg PO via gavage. The dosing volume was 3 mL/kg for IV route and 10 mL/kg for PO route. Dosing solutions were prepared on the day of administration. Blood samples were collected at 10, 20 min, 1, 2, 4, 7 and 24 h after 3 mg/kg IV administration. After oral administration of 3 and 10 mg/kg in C57BL6 mice, blood and liver samples were collected at 10 min, 0.5, 1, 2, 3, 5, 7, 9 and 24 h post dosing (n = 3 per time point). In KPC mice, blood, pancreatic tumor, spleen and liver samples were collected at 1, 2, 3, 6, 9, 12 and 24 h after 25 mg/kg PO administration.
For the assessment of multiple dose (MD) pharmacokinetics, KPC mice were treated with daily PO administration of 25 mg/kg metarrestin for 14 days. Plasma (100–300 µL), pancreatic tumors, spleen and liver samples were collected at 0, 3, 6, 9, 12, 15, 24 and 48 h after last dose from three mice at each time point. Daily dosing was carried for 14 days, with the last dose administered at 9:00 a.m. on Day 14. To assess the steady-state concentration of metarrestin in KPC mice, animals were treated with drug-formulated chow for 14 days. To control for daily cycle changes in feeding behavior, 9:00 a.m. on day 0 was designated as the study start time, and 9:00 a.m. on Day 14 was designated as the 0 h time point for sample collection. Blood, pancreatic tumor, spleen and liver tissue were collected at 0, 3, 6, 9, 12, 15, and 24 h from three mice at each time point while the animals were continuously fed with metarrestin-formulated chow on Day 14. Additional controls included mice with a matched drug-free diet, with blood and tissue samples collected at the initial (t = 0) and two intermediate (t = 9 h, t = 24 h) time points.
Blood samples were collected in K2EDTA tubes and plasma was harvested after centrifugation at 3000 rpm for 10 min. Tissue samples were weighed and flash-frozen for PK and PD mRNA expression analyses, embedded into OCT blocks for PNC determination and processed into FFPE blocks for histopathology assessment. All PK samples were stored at − 80 °C until analysis.
An ultra-performance liquid chromatography–tandem mass spectrometry (UPLC–MS/MS) method was developed to determine metarrestin concentrations in plasma and tissue samples. Mass spectrometric analysis was performed on a Waters Xevo TQ-S triple quadrupole instrument using electrospray ionization in positive mode. The separation was performed on an Acquity BEH C18 column (50 × 2.1 mm, 1.7 µ) using a Waters Acquity UPLC system with 0.6 mL/min flow rate and gradient elution. Mobile phase A was 0.1% formic acid in water, and B was 0.1% formic acid in acetonitrile (ACN). The column temperature was maintained at 60 °C. The calibration standards and quality control (QC) samples were prepared in the control blank mouse plasma and tissue homogenate. Tissues were homogenized with 3 or 6 volumes (v/w) of deionized water on the day of analysis. Proteins were precipitated from 10 µL plasma or 5 µL tissue homogenate with 200 µL ACN containing 100 ng/mL Tolbutamide as internal standard in 96-well plates. The mixture was vortexed for 2 min and centrifuged at 4000 rpm for 30 min at 4 °C. An aliquot of 150 µL supernatant was transferred to a 350-µL 96-well plate. 0.2 µL supernatant was injected for the UPLC–MS/MS analysis. Data were analyzed using MassLynx V4.1. […]

[1] = KPC, mouse, pancreatic tumor, tumor, day 14, multiple PO doses 25 mg/kg/day
[2] = KPC, mouse, pancreatic tumor, tumor, single PO dose 25 mg/kg
[3] = KPC, mouse, liver, day 14, multiple PO doses 25 mg/kg/day
[4] = KPC, mouse, liver, single PO dose 25 mg/kg
[5] = KPC, mouse, plasma, day 14, multiple PO doses 25 mg/kg/day
[6] = KPC, mouse, plasma, single PO dose 25 mg/kg
[7] = KPC, mouse, spleen, day 14, multiple PO doses 25 mg/kg/day
[8] = KPC, mouse, spleen, single PO dose 25 mg/kg

SMILES: N=c1c2c(-c3ccccc3)c(-c3ccccc3)n(Cc3ccccc3)c2ncn1[C@H]1CC[C@H](O)CC1 [metarrestin, Trans-4-(7-benzyl-4-imino-5,6-diphenyl-4,7-dihydro-3H-pyrrolo[2,3-d]pyrimidin-3-yl) cyclohexanol]
- intratumor AUC0–24h (25 mg/kg PO gavage MD): 1,150,000 h ng/mL
- AUC(0-t) (KPC, mouse, liver, 25 mg/kg, liver, single PO dose 25 mg/kg, read-out: AUC0–24h): 536 µg·h/mL
- AUC(0-t) (KPC, mouse, liver, 25 mg/kg/day, liver, day 14, multiple PO doses 25 mg/kg/day, read-out: AUC0–24h): 987 µg·h/mL
- AUC(0-t) (KPC, mouse, liver, 25 mg/kg/day, liver, day 14, multiple PO doses 25 mg/kg/day, read-out: AUC0–48h): 1290 µg·h/mL
- Kp (KPC, mouse, pancreatic tumor / plasma, tumor/plasma, day 14, multiple PO doses 25 mg/kg/day): 37
- Kp (KPC, mouse, pancreatic tumor / plasma, tumor/plasma, single PO dose 25 mg/kg): 19
- AUC(0-t) (KPC, mouse, pancreatic tumor, 25 mg/kg, tumor, single PO dose 25 mg/kg, read-out: AUC0–24h): 232 µg·h/mL
- AUC(0-t) (KPC, mouse, pancreatic tumor, 25 mg/kg/day, tumor, day 14, multiple PO doses 25 mg/kg/day, read-out: AUC0–24h): 1150 µg·h/mL
- AUC(0-t) (KPC, mouse, pancreatic tumor, 25 mg/kg/day, tumor, day 14, multiple PO doses 25 mg/kg/day, read-out: AUC0–48h): 1810 µg·h/mL
- concentration at 24 h (KPC, mouse, pancreatic tumor, 24 h after single dose 25 mg/kg PO, read-out: intratumor concentration (mean)): 6200 ng/g and 13 µM
- AUC(0-inf) [1]: 2090 µg·h/mL
- Cmax [1]: 65000 ng/mL
- Tmax [1]: 6 h
- half-life [1]: 18 h
- Cmax [2]: 14000 ng/mL
- Tmax [2]: 6 h
- AUC(0-t) (KPC, mouse, plasma, 25 mg/kg, plasma, single PO dose 25 mg/kg, read-out: AUC0–24h): 12.1 µg·h/mL
- AUC(0-t) (KPC, mouse, plasma, 25 mg/kg/day, plasma, day 14, multiple PO doses 25 mg/kg/day, read-out: AUC0–24h): 31.5 µg·h/mL
- AUC(0-t) (KPC, mouse, plasma, 25 mg/kg/day, plasma, day 14, multiple PO doses 25 mg/kg/day, read-out: AUC0–48h): 38.4 µg·h/mL
- AUC(0-t) (KPC, mouse, spleen, 25 mg/kg, spleen, single PO dose 25 mg/kg, read-out: AUC0–24h): 396 µg·h/mL
- AUC(0-t) (KPC, mouse, spleen, 25 mg/kg/day, spleen, day 14, multiple PO doses 25 mg/kg/day, read-out: AUC0–24h): 959 µg·h/mL
- AUC(0-t) (KPC, mouse, spleen, 25 mg/kg/day, spleen, day 14, multiple PO doses 25 mg/kg/day, read-out: AUC0–48h): 1220 µg·h/mL
- Kp (KPC, mouse, liver/plasma, day 14, multiple PO doses 25 mg/kg/day): 31
- Kp (KPC, mouse, liver/plasma, single PO dose 25 mg/kg): 44
- AUC(0-inf) [3]: 1350 µg·h/mL
- Cmax [3]: 59500 ng/mL
- Tmax [3]: 6 h
- half-life [3]: 9.6 h
- AUC(0-inf) [4]: 653 µg·h/mL
- Cmax [4]: 34200 ng/mL
- Tmax [4]: 6 h
- half-life [4]: 9 h
- AUC(0-inf) [5]: 39.3 µg·h/mL
- Cmax [5]: 2000 ng/mL
- Tmax [5]: 3 h
- half-life [5]: 8.2 h
- AUC(0-inf) [6]: 14.4 µg·h/mL
- Cmax [6]: 810 ng/mL
- Tmax [6]: 6 h
- half-life [6]: 8.5 h
- Kp (KPC, mouse, spleen/plasma, day 14, multiple PO doses 25 mg/kg/day): 30
- Kp (KPC, mouse, spleen/plasma, single PO dose 25 mg/kg): 33
- AUC(0-inf) [7]: 1250 µg·h/mL
- Cmax [7]: 62400 ng/mL
- Tmax [7]: 6 h
- half-life [7]: 8.2 h
- AUC(0-inf) [8]: 495 µg·h/mL
- Cmax [8]: 25000 ng/mL
- Tmax [8]: 6 h
- half-life [8]: 9.7 h
- AUC0–24h (liver, MD 25 mg/kg/day PO): 987,000 ng h/g
- AUC0–24h (liver, SD 25 mg/kg PO): 536,000 ng h/g
- AUC0–24h (tumor, MD 25 mg/kg/day PO): 1,150,000 ng h/g
- AUC0–24h (tumor, SD 25 mg/kg PO): 232,000 ng h/g
